Laboratory results as given in patent publication US20230310388A1, “Methods and Compositions for Treating Fungal Infections” (Neoculi Pty Ltd, priority 2020, published 2023).
In brackets after ≈: the same amount, converted by molar mass. Several values for one entry are separate records, joined by “and”; a condition that tells them apart may be missing. Identical values can stand only once. Values belong to the molecule of their own block, whether it stands above or below them.

Columns and labels:
[1] = tested on: Candida albicans ATCC14053; test: Broth micro-dilution screen at 16 μg/mL and MIC (Example 9); assay type: cell-based; settings: for MIC: C. albicans ATCC14053, test range 0.25-64 μg/mL, duplicate; for Screen at 16 μg/mL: single concentration 16 μg/mL, Growth or No growth of C. albicans ATCC14053
Method: The antifungal activity of 201 NCL analogs against Candida albicans ATCC14053 in vitro was investigated. A broth micro-dilution method was used, according to CLSI guidelines as described. NCL analogs were dissolved in DMSO and originally screened at a single concentration of 16 μg/mL.

[2] = tested on: Candida albicans; test: CLSI broth microdilution MIC (Example 5); assay type: cell-based; settings: for activity against one or more isolates of Cryptococcus neoformans and Candida albicans: summary in words
Method: (§1) Antifungal minimum inhibitory concentration (MIC) testing was undertaken as recommended by the CLSI. Briefly, antifungal susceptibility tests were performed for amphotericin B, robenidine (NCL812) and robenidine analogs (NCL23, NCL24, NCL97, NCL113, NCL115, NCL195, NCL219, NCL220, NCL259, NCL265) by standard broth microdilution method (CLSI) in RPMI 1640. Various concentrations (ranging from high to low) of the selected compounds were prepared in RPMI 1640 medium by double dilution in 96-well microtitre plates. Each well contained an inoculum of approximately 2×10^3 cells/mL. The wells without addition of drugs served as negative (no inoculum) and positive (inoculum only) growth controls. Microtitre plates were incubated at 35° C. for 24-48 hours. […] Antifungal MICs were determined for each isolate in duplicate; if the values obtained were different, the MIC test was repeated a third time.

[3] = tested on: Cryptococcus neoformans; test: CLSI broth microdilution MIC (Example 5); assay type: cell-based
Method: as §1

[4] = tested on: Candida albicans; test: CLSI broth microdilution MIC (Example 3); assay type: cell-based
Method: (§2) Antifungal minimum inhibitory concentration (MIC) testing was undertaken as recommended by the CLSI. Briefly, antifungal susceptibility tests were performed for amphotericin B, robenidine (NCL812) and 5 robenidine analogs (NCL062, NCL195, NCL219, NCL259, NCL265) by standard broth microdilution method (CLSI) in RPMI 1640. Various concentrations (ranging from high to low) of the selected compounds were prepared in RPMI 1640 medium by double dilution in 96-well microtitre plates. Each well contained an inoculum of approximately 2×10^3 cells/mL. The wells without addition of drugs served as negative (no inoculum) and positive (inoculum only) growth controls. Microtitre plates were incubated at 35° C. for 24-48 hours. […] Antifungal MICs were determined for each isolate in duplicate; if the values obtained were different, the MIC test was repeated a third time. Antifungal susceptibility tests were performed for amphotericin B and NCL analogs by standard broth microdilution method (CLSI). Briefly, various concentrations (ranging from high to low) of the selected compounds were prepared in RPMI 1640 medium by double dilution in the 96-well plates. Each well contained an inoculum of approximately 2×10^3 cells/mL. The wells without addition of drugs served as a negative control. Micro plates were incubated at 35° C. for 48 hour and read spectrophotometrically at 600 nm, using a microplate reader (Multiskan-EX; Thermo Elect. Corp., USA).

[5] = tested on: Candida parapsilosis; test: CLSI broth microdilution MIC (Example 3); assay type: cell-based; settings: Candida parapsilosis ATCC 22019
Method: as §2

[6] = tested on: C. gattii; test: CLSI broth microdilution MIC (Example 6); assay type: cell-based, Cryptococcus gattii
Method: (§3) Antifungal minimum inhibitory concentration (MIC) testing was undertaken as recommended by the CLSI (1). Briefly, antifungal susceptibility tests were performed for amphotericin B, robenidine (NCL812) and 10 robenidine analogs (NCL023, NCL024, NCL097, NCL113, NCL115, NCL195, NCL219, NCL220, NCL259, NCL265) by standard broth microdilution method (CLSI) in RPMI 1640. Various concentrations (ranging from high to low) of the selected compounds were prepared in RPMI 1640 medium by double dilution in 96-well microtitre plates. Each well contained an inoculum of approximately 2×10^3 cells/mL. The wells without addition of drugs served as negative (no inoculum) and positive (inoculum only) growth controls. Microtitre plates were incubated at 35° C. for 24-48 hours. […] Antifungal MICs were determined for each isolate in duplicate; if the values obtained were different, the MIC test was repeated a third time.

[7] = tested on: Candida albicans; test: CLSI broth microdilution MIC (Example 6); assay type: cell-based
Method: as §3

[8] = tested on: Cryptococcus neoformans; test: CLSI broth microdilution MIC (Example 6); assay type: cell-based
Method: as §3

[9] = tested on: Candida albicans; test: CLSI broth microdilution MIC (Example 4); assay type: cell-based; settings: for antifungal activity against the two isolates of Candida albicans: summary in words
Method: (§4) Antifungal minimum inhibitory concentration (MIC) testing was undertaken as recommended by the CLSI. Briefly, antifungal susceptibility tests were performed for amphotericin B, robenidine (NCL812) and robenidine (NCL) analogs (NCL004, NCL020, NCL023, NCL024, NCL062, NCL094, NCL097, NCL110, NCL113, NCL114, NCL115, NCL135, NCL139, NCL180, NCL181, NCL195, NCL219, NCL220, NCL228, NCL247, NCL250, NCL259, NCL260, NCL263, NCL265, NCL269, NCL274) by standard broth microdilution method (CLSI) in RPMI 1640. Various concentrations (ranging from high to low) of the selected compounds were prepared in RPMI 1640 medium by double dilution in 96-well microtitre plates. Each well contained an inoculum of approximately 2×10^3 cells/mL. The wells without addition of drugs served as negative (no inoculum) and positive (inoculum only) growth controls. Microtitre plates were incubated at 35° C. for 24-48 hours. […] Antifungal MICs were determined for each isolate in duplicate; if the values obtained were different, the MIC test was repeated a third time.

[10] = tested on: Cryptococcus neoformans; test: CLSI broth microdilution MIC (Example 4); assay type: cell-based
Method: as §4

[11] = clinical isolate C. albicans 12-93301752 Azole Resistant
[12] = clinical isolate C. albicans 14-90045999 Azole Resistant
[13] = clinical isolate C. albicans 15-45171061
[14] = clinical isolate C. albicans 15-91329871
[15] = clinical isolate C. albicans 16-24136919 Azole Resistant
[16] = clinical isolate C. albicans 16-46177400
[17] = clinical isolate C. albicans 16-90050810
[18] = clinical isolate C. albicans 16-90054237
[19] = clinical isolate C. albicans 18-144-00196
[20] = clinical isolate C. albicans 18-148-08188 Azole Resistant
[21] = Candida albicans ATCC 90028, 1st
[22] = Candida albicans ATCC 90028, 2nd
[23] = human clinical isolate C. gatti 17-90232099
[24] = human clinical isolate C. gattii 16-90050373
[25] = human clinical isolate C. gattii 17-90028211
[26] = human clinical isolate C. gattii 17-90028217
[27] = human clinical isolate C. gattii 17-90028242
[28] = human clinical isolate C. neoformans serotype A/D hybrid
[29] = human clinical isolate C. neoformans var grubii 16-90050434
[30] = human clinical isolate C. neoformans var grubii 17-90028233
[31] = human clinical isolate C. neoformans var grubii 17-93996464
[32] = human clinical isolate C. neoformans var grubii 17-93996964

MIC [1]: >64 µg/mL
MIC ([2]; C. albicans SA3): 16 µg/mL
MIC ([2]; Candida albicans ATCC 90028): 32 µg/mL
MIC [2, 11]: >16 µg/mL
MIC [2, 12]: 4 µg/mL
MIC [2, 13]: 8 µg/mL
MIC [2, 14]: >16 µg/mL
MIC [2, 15]: >16 µg/mL
MIC [2, 16]: >16 µg/mL
MIC [2, 17]: >16 µg/mL
MIC [2, 18]: >16 µg/mL
MIC [2, 19]: >16 µg/mL
MIC [2, 20]: >16 µg/mL
MIC ([3]; Cryptococcus neoformans SA1): 2 µg/mL
MIC ([3]; Cryptococcus neoformans SA2): 2 µg/mL
MIC [4, 21]: >32 µg/mL
MIC [4, 22]: >32 µg/mL
MIC ([4]; Candida albicans, 1st): >32 µg/mL
MIC ([4]; Candida albicans, 2nd): >32 µg/mL
MIC ([5]; 1st): >32 µg/mL
MIC ([5]; 2nd): >32 µg/mL
MIC [6, 23]: >32 µg/mL
MIC [6, 24]: >32 µg/mL
MIC [6, 25]: >32 µg/mL
MIC [6, 26]: >32 µg/mL
MIC [6, 27]: >32 µg/mL
MIC ([7]; C. albicans SA3): 16 µg/mL
MIC ([7]; Candida albicans ATCC 90028): 32 µg/mL
MIC ([8]; Cryptococcus neoformans SA1): 2 µg/mL
MIC ([8]; Cryptococcus neoformans SA2): 2 µg/mL
MIC [8, 28]: >32 µg/mL
MIC [8, 29]: >32 µg/mL
MIC [8, 30]: >32 µg/mL
MIC [8, 31]: >32 µg/mL
MIC [8, 32]: >32 µg/mL
MIC at 24-48 hours ([9]; Candida albicans ATCC 90028): 32 µg/mL
MIC at 24-48 hours ([9]; Candida albicans SA3): 16 µg/mL
MIC at 24-48 hours ([10]; Cryptococcus neoformans SA1): 2 µg/mL
MIC at 24-48 hours ([10]; Cryptococcus neoformans SA2): 2 µg/mL
SMILES: C/C(=N\NC(=N)N/N=C(\C)c1ccc(C(C)(C)C)cc1)c1ccc(C(C)(C)C)cc1.Cl [NCL219]
Screen at 16 μg/mL [1]: Growth
activity against one or more isolates of Cryptococcus neoformans and Candida albicans [2]: highly active
antifungal activity against the two isolates of Candida albicans [9]: high antifungal activity

MIC [1]: 8 µg/mL and 16 µg/mL
MIC ([2]; C. albicans SA3): 16 µg/mL (≈ 54.6 µM)
MIC ([2]; Candida albicans ATCC 90028): 16 µg/mL (≈ 54.6 µM)
MIC [2, 11]: 16 µg/mL (≈ 54.6 µM)
MIC [2, 12]: >16 µg/mL
MIC [2, 13]: 8 µg/mL (≈ 27.3 µM)
MIC [2, 14]: >16 µg/mL
MIC [2, 15]: 8 µg/mL (≈ 27.3 µM)
MIC [2, 16]: >16 µg/mL
MIC [2, 17]: >16 µg/mL
MIC [2, 18]: 32 µg/mL (≈ 109 µM)
MIC [2, 19]: >16 µg/mL
MIC [2, 20]: >16 µg/mL
MIC ([3]; Cryptococcus neoformans SA1): 2 µg/mL (≈ 6.83 µM)
MIC ([3]; Cryptococcus neoformans SA2): 2 µg/mL (≈ 6.83 µM)
MIC [4, 21]: 4 µg/mL (≈ 13.7 µM)
MIC [4, 22]: 8 µg/mL (≈ 27.3 µM)
MIC ([4]; Candida albicans, 1st): 4 µg/mL (≈ 13.7 µM)
MIC ([4]; Candida albicans, 2nd): 4 µg/mL (≈ 13.7 µM)
MIC ([5]; 1st): 4 µg/mL (≈ 13.7 µM)
MIC ([5]; 2nd): 4 µg/mL (≈ 13.7 µM)
MIC [6, 23]: 8 µg/mL (≈ 27.3 µM)
MIC [6, 24]: 8 µg/mL (≈ 27.3 µM)
MIC [6, 25]: 8 µg/mL (≈ 27.3 µM)
MIC [6, 26]: 8 µg/mL and 16 µg/mL
MIC [6, 27]: 8 µg/mL (≈ 27.3 µM)
MIC ([7]; C. albicans SA3): 16 µg/mL (≈ 54.6 µM)
MIC ([7]; Candida albicans ATCC 90028): 16 µg/mL (≈ 54.6 µM)
MIC ([8]; Cryptococcus neoformans SA1): 2 µg/mL (≈ 6.83 µM)
MIC ([8]; Cryptococcus neoformans SA2): 2 µg/mL (≈ 6.83 µM)
MIC [8, 28]: 8 µg/mL (≈ 27.3 µM)
MIC [8, 29]: 8 µg/mL (≈ 27.3 µM)
MIC [8, 30]: 8 µg/mL (≈ 27.3 µM)
MIC [8, 31]: 8 µg/mL and 16 µg/mL
MIC [8, 32]: 8 µg/mL (≈ 27.3 µM)
MIC at 24-48 hours ([9]; Candida albicans ATCC 90028): 16 µg/mL (≈ 54.6 µM)
MIC at 24-48 hours ([9]; Candida albicans SA3): 16 µg/mL (≈ 54.6 µM)
MIC at 24-48 hours ([10]; Cryptococcus neoformans SA1): 2 µg/mL (≈ 6.83 µM)
MIC at 24-48 hours ([10]; Cryptococcus neoformans SA2): 2 µg/mL (≈ 6.83 µM)
SMILES: [H]/N=C(\N)NN=C(CC1CCCCC1)c1ccc(Cl)cc1 [NCL259]
Screen at 16 μg/mL [1]: No growth
activity against one or more isolates of Cryptococcus neoformans and Candida albicans [2]: highly active
antifungal activity against the two isolates of Candida albicans [9]: high antifungal activity
